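48-hour exposure; five concentrations; linearly interpolated endpoints. At the TGI there is no net growth.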
Key:
Experiment in all cases: growth of human tumour cells (NCI), 48 h
U251 CNS = test system: U251 CNS
HOP-92 NSCLC = test system: HOP-92 NSCLC
PC-3 prostate = test system: PC-3 prostate
HOP-62 NSCLC = test system: HOP-62 NSCLC
HCT-15 colon = test system: HCT-15 colon
HCT-116 colon = test system: HCT-116 colon
OVCAR-5 ovarian = test system: OVCAR-5 ovarian
TK-10 renal = test system: TK-10 renal
SK-MEL-2 melanoma = test system: SK-MEL-2 melanoma
NCI-H522 lung = test system: NCI-H522 lung
SF-539 CNS = test system: SF-539 CNS
MDA-MB-231 breast = test system: MDA-MB-231 breast
UACC-62 melanoma = test system: UACC-62 melanoma
HS 578T breast = test system: HS 578T breast
RPMI-8226 leukemia = test system: RPMI-8226 leukemia
MCF7 breast = test system: MCF7 breast
K-562 leukemia = test system: K-562 leukemia
SK-OV-3 ovarian = test system: SK-OV-3 ovarian
SK-MEL-5 melanoma = test system: SK-MEL-5 melanoma
SF-268 CNS = test system: SF-268 CNS
SF-295 CNS = test system: SF-295 CNS
MOLT-4 leukemia = test system: MOLT-4 leukemia
SNB-75 CNS = test system: SNB-75 CNS
SN12C renal = test system: SN12C renal
UACC-257 melanoma = test system: UACC-257 melanoma
COLO 205 colon = test system: COLO 205 colon
A498 renal = test system: A498 renal
MALME-3M melanoma = test system: MALME-3M melanoma
SNB-19 CNS = test system: SNB-19 CNS
BT-549 breast = test system: BT-549 breast
DU-145 prostate = test system: DU-145 prostate
NCI-H23 lung = test system: NCI-H23 lung
OVCAR-4 ovarian = test system: OVCAR-4 ovarian
IGROV1 ovarian = test system: IGROV1 ovarian
CCRF-CEM leukemia = test system: CCRF-CEM leukemia
EKVX NSCLC = test system: EKVX NSCLC
SR leukemia = test system: SR leukemia
A549 NSCLC = test system: A549 NSCLC
MDA-MB-435 = test system: MDA-MB-435
T-47D breast = test system: T-47D breast
UO-31 renal = test system: UO-31 renal
OVCAR-8 ovarian = test system: OVCAR-8 ovarian
MDA-N = test system: MDA-N
NCI-H226 lung = test system: NCI-H226 lung
OVCAR-3 ovarian = test system: OVCAR-3 ovarian
786-0 renal = test system: 786-0 renal
KM12 colon = test system: KM12 colon
M14 melanoma = test system: M14 melanoma
NCI/ADR-RES ovarian = test system: NCI/ADR-RES ovarian
SW-620 colon = test system: SW-620 colon
CAKI-1 renal = test system: CAKI-1 renal
HCC-2998 colon = test system: HCC-2998 colon
HT29 colon = test system: HT29 colon
NCI-H460 lung = test system: NCI-H460 lung
LOX IMVI melanoma = test system: LOX IMVI melanoma
ACHN renal = test system: ACHN renal
SK-MEL-28 melanoma = test system: SK-MEL-28 melanoma
RXF 393 renal = test system: RXF 393 renal

Measured: TGI

CCn1c(=O)c2cn[nH]c2n(C)c1=O
> 100 µM: U251 CNS | HOP-92 NSCLC | PC-3 prostate | HOP-62 NSCLC | HCT-15 colon | HCT-116 colon | OVCAR-5 ovarian | TK-10 renal | SK-MEL-2 melanoma | NCI-H522 lung | SF-539 CNS | MDA-MB-231 breast | UACC-62 melanoma | HS 578T breast | RPMI-8226 leukemia | MCF7 breast | K-562 leukemia | SK-OV-3 ovarian | SK-MEL-5 melanoma | SF-268 CNS | SF-295 CNS | MOLT-4 leukemia | SNB-75 CNS | SN12C renal | UACC-257 melanoma | COLO 205 colon | A498 renal | MALME-3M melanoma | SNB-19 CNS | BT-549 breast | DU-145 prostate | NCI-H23 lung | OVCAR-4 ovarian | IGROV1 ovarian | CCRF-CEM leukemia | EKVX NSCLC | SR leukemia | A549 NSCLC | MDA-MB-435 | T-47D breast | UO-31 renal | OVCAR-8 ovarian | MDA-N | NCI-H226 lung | OVCAR-3 ovarian | 786-0 renal | KM12 colon | M14 melanoma | NCI/ADR-RES ovarian | SW-620 colon | CAKI-1 renal | HCC-2998 colon | HT29 colon | NCI-H460 lung | LOX IMVI melanoma | ACHN renal | SK-MEL-28 melanoma | RXF 393 renal

Nn1c(SCC(=O)O)nc2ccccc2c1=O
> 100 µM: U251 CNS | HOP-92 NSCLC | PC-3 prostate | HCT-15 colon | HCT-116 colon | OVCAR-5 ovarian | TK-10 renal | SK-MEL-2 melanoma | NCI-H522 lung | SF-539 CNS | MDA-MB-231 breast | UACC-62 melanoma | HS 578T breast | RPMI-8226 leukemia | MCF7 breast | K-562 leukemia | SK-MEL-5 melanoma | SF-268 CNS | SF-295 CNS | MOLT-4 leukemia | SNB-75 CNS | SN12C renal | UACC-257 melanoma | COLO 205 colon | A498 renal | MALME-3M melanoma | SNB-19 CNS | BT-549 breast | DU-145 prostate | NCI-H23 lung | OVCAR-4 ovarian | IGROV1 ovarian | CCRF-CEM leukemia | EKVX NSCLC | SR leukemia | A549 NSCLC | MDA-MB-435 | T-47D breast | UO-31 renal | OVCAR-8 ovarian | MDA-N | NCI-H226 lung | OVCAR-3 ovarian | 786-0 renal | KM12 colon | M14 melanoma | NCI/ADR-RES ovarian | SW-620 colon | CAKI-1 renal | HCC-2998 colon | HT29 colon | NCI-H460 lung | LOX IMVI melanoma | ACHN renal | SK-MEL-28 melanoma | RXF 393 renal

ONCCCn1cnc2c(NC3CC3)ncnc21
> 100 µM: U251 CNS | HOP-92 NSCLC | PC-3 prostate | HOP-62 NSCLC | HCT-15 colon | HCT-116 colon | OVCAR-5 ovarian | TK-10 renal | SK-MEL-2 melanoma | NCI-H522 lung | SF-539 CNS | MDA-MB-231 breast | UACC-62 melanoma | HS 578T breast | RPMI-8226 leukemia | MCF7 breast | K-562 leukemia | SK-OV-3 ovarian | SK-MEL-5 melanoma | SF-268 CNS | SF-295 CNS | MOLT-4 leukemia | SNB-75 CNS | SN12C renal | UACC-257 melanoma | COLO 205 colon | A498 renal | MALME-3M melanoma | SNB-19 CNS | BT-549 breast | DU-145 prostate | NCI-H23 lung | OVCAR-4 ovarian | IGROV1 ovarian | CCRF-CEM leukemia | EKVX NSCLC | SR leukemia | A549 NSCLC | MDA-MB-435 | T-47D breast | UO-31 renal | OVCAR-8 ovarian | MDA-N | NCI-H226 lung | OVCAR-3 ovarian | 786-0 renal | KM12 colon | M14 melanoma | NCI/ADR-RES ovarian | SW-620 colon | CAKI-1 renal | HCC-2998 colon | HT29 colon | NCI-H460 lung | LOX IMVI melanoma | ACHN renal | SK-MEL-28 melanoma | RXF 393 renal

— PubChem BioAssay (NCI)
